Tests used:
[1] = In vitro skin permeation, Franz diffusion cells; format: in vitro ADME, rat
Method: (§1) In order to determine if the penetration and retention of full-length α-MSH could be augmented in vitro by formulations containing compounds known to improve this process, we conducted in vitro studies with 36 different formulations of α-MSH. The α-MSH powder was weighed directly into a 2 mL graduated glass vial and dissolved in water. Measured volumes of the respective vehicles were dissolved in the solution to achieve the desired percentage (w/v) of α-MSH. Hairless rats were euthanized, skin from the dorsal surface was excised, and the adherent fat and subcutaneous tissue were removed. The skin was mounted on Franz diffusion cells with the stratum corneum facing the donor compartment. The volume of the donor and receptor cells was 2.0 and 5.0 mL, respectively.
Permeation of α-MSH in these formulations was measured by applying the formulation (200 μL) on the skin surface in the donor compartment, sealed with aluminum foil and Parafilm®. […] After 24 hours, the receptor compartment was sampled, and α-MSH content was analyzed by HPLC.
(§2) Analysis of α-MSH in permeation and retention studies conducted in vitro with skin from hairless rats was performed using an HPLC system (Waters Corp, Milford, Mass.) operated by Millennium software. […] The α-MSH content in the samples was determined using the UV detector set at 230 nm, and the detection limit was determined to be 0.1 μg/mL. […]

[2] = In vitro skin retention, Franz diffusion cells; format: in vitro ADME, rat; details: after 24 hours
Method: as §1
For the retention studies, the donor cell was removed, and the excess formulation was removed from the surface of the skin by gently wiping with a cotton swab dipped in 50% ethanol. […] The α-MSH content of each sample was analyzed by HPLC. […]
as §2

[3] = system: DNFB-induced allergic contact dermatitis; experiment: Murine allergic contact dermatitis (ACD) model, ear swelling by micrometer; format: in vivo, mouse; details: concentration of 0.25% α-MSH versus 0.125% and 0.5%; topical formulations including MF21
Method: Allergic contact dermatitis was induced as previously described (8, 16). Mice were sensitized on day 0 by applying 25 μL of 0.5% DNFB in 4:1 acetone/olive oil on the shaved abdomen. Mice were challenged on day 5 with a single topical application of 15 μL of 0.2% DNFB in 4:1 acetone/olive oil on the right ear in order to induce an ACD response. The left ears were treated with a single topical application of the matched vehicle alone (4:1 acetone/olive oil) to serve as an internal control for the experiments. Beginning on day 6 (24 hours after challenge), the right ears were treated with 15 μL of topically applied α-MSH formulations or 0.5 mM dexamethasone solution and the left ears of the same mice were topically applied with the corresponding matched vehicle. […] Commercial ointment products were topically applied 20 μL per treatment as measured with a syringe and spread evenly with an applicator stick. […] The ACD response was determined by the degree of ear swelling of the hapten-exposed ear (right) compared to that of the matched vehicle-treated contra-lateral ear (left) before DNFB challenge and at 24, 48, 72, and 96 hours after challenge, as measured with a micrometer (7309, Mitutoyo, Tokyo, Japan). Percent change was determined based on 100% thickness 24 hours after challenge. […]

[4] = system: DNFB-induced allergic contact dermatitis; experiment: Histology (H&E) of ear tissue in the ACD model; format: in vivo, mouse; set-up: key to score of relative inflammation (infiltrate grade): (1+) representing few lymphocytes and eosinophils above baseline levels that are scattered around blood vessels; (2+) representing increased perivascular infiltrate; (3+) representing intense perivascular infiltrate extending slightly into the interstitial collagen between vessels within the papillary dermis; (4+) representing intense diffuse lymphocytic infiltrate throughout the papillary dermis; details: 96 hours after DNFB challenge
Method: (§3) Mice examined in the allergic contact dermatitis model were euthanized 96 hours after challenge with DNFB, and the left and right ears were excised. Ears were fixed in alcoholic formalin and embedded in paraffin. Cross-sections were cut through the center of each ear anterior to posterior. Ears were stained using hematoxylin and eosin (H&E). Additionally, the inflammatory markers CD3 and ICAM-1 were stained using rat anti-mouse primary antibodies (0.2 μg/mL and 1.0 μg/mL, respectively) and detected with a mouse-absorbed goat anti-rat'horseradish peroxidase-conjugated secondary antibody (1.0 μg/mL). Endogenous peroxidase activity was blocked with H2O2 before antibody incubations and DAB exposure, and then the marker-stained slides were counterstained with Mayer's hematoxylin blued with dilute ammonium hydroxide. The sections of each ear were photographed at representative sites using a light microscope (Zeiss Axio Imager; Zeiss, Thornwood, N.Y.) with an attached digital camera (Axiocam MRc, Zeiss, Thornwood, N.Y.) operated by Zeiss AxioVision 4.6.
Mice used in the allergic contact dermatitis model were euthanized 96 hours after challenge with DNFB (72 hours after initiation of topical treatment), and the left and right ears were excised, fixed with formalin, and embedded in paraffin. Cross-sections of the middle of each ear (same position) were cut at a thickness of 4 μm and stained with hematoxylin and eosin (H&E). […] Microscopic measurements of thickness were made at 5 equidistant points on each of the photographed H&E sections. All values are expressed as mean±SD. All differences were statistically significant as determined by ANOVA for pair-wise comparison (P<0.05).
Overall, the allergic contact dermatitis hypersensitivity response developed intense perivascular lymphoid infiltrate extending into the papillary dermis with little or no change in the epidermis at 96 hours following challenge. In all samples generally >90% of the inflammatory infiltrate consisted of lymphocytes and <10% consisted of eosinophils. […]

CD3 = experiment: Immunohistochemistry of ear tissue in the ACD model, CD3; format: in vivo, mouse; details: ear tissue after three days of treatment, 96 hours after DNFB challenge
Method: as §3
To assay inflammation, ear tissue of the mice was excised 96 hours after challenge with DNFB, fixed in formalin, and embedded in paraffin. […]

Ac-Ser-Tyr-Ser-Met-Glu-His-Phe-Arg-Trp-Gly-Lys-Pro-Val [α-MSH]
permeation through the skin barrier ([1]; aqueous α-MSH in the absence of TRANSCUTOL and NMP, after 24 hours): did not permeate through the skin barrier at all | α-MSH penetrated through 1.0 cm^2 of skin ([1]; vehicles ethanol, propylene glycol, TRANSCUTOL and LABRASOL (all four), hairless rat skin in vitro): 6.5 to 7.0 µg | α-MSH retained per gram of skin (epidermis) ([2]; in aqueous TRANSCUTOL, LABRASOL, or propylene glycol): 0.4-0.5 mg per gram of skin | α-MSH retained per gram of skin (epidermis) ([2]; in aqueous ethanol): 1.8 mg per gram of skin | reduction in ear swelling, α-MSH dose response [3]: optimal reduction in ear swelling | score of relative inflammation (infiltrate grade) [4]: 1+ | inflammatory (lymphoid) infiltrate in H&E sections ([4]; three days of treatment twice per day): relatively low retention of inflammatory infiltrate | ear swelling in H&E sections ([4]; three days of treatment twice per day, FIG. 4): complete alleviation of swelling down to slightly below baseline thickness | expression of the CD3 marker antigen in the lymphocytic infiltrate (CD3): greatly reduced

From patent publication US8846616B1, “Alpha-melanocyte stimulating hormone as topical anti-inflammatory agent for the treatment of allergic contact dermatitis and eczema” (Florida Agricultural and Mechanical University, priority 2009, dated 2014)
